Measured values published in the supplement of paper PMC6045584.
± gives the standard deviation of the averaged measurements.

Assays:
MDV3100 [1] = compound: T1, CNC(=O)c1ccc(N2C(=S)N(c3ccc(C#N)c(C(F)(F)F)c3)C(=O)C2(C)C)cc1F [MDV3100]; assay: area under dose-response curve of surviving fraction (unscaled, Aref=0) (surviving fraction x log10(nM)); higher = more resistant; settings: exposure time: 5 days; dose range 0.5-1000 nM
Method in brief: (§1)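 Tumour cell lines in 384-well plates were exposed for five days to eight inhibitor concentrations from 0.5 to 1000 nM. Viability was read by CellTiter-Glo luminescence, normalised to DMSO-only wells, in three screens per line. Dose-response survival curves were fitted to surviving fractions by 3-parameter logistic regression in the drc R package. Area under the curve is the unscaled activity area (Aref = 0) over log10 dose.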

AFATINIB [2] = compound: T2, CN(C)C/C=C/C(=O)Nc1cc2c(Nc3ccc(F)c(Cl)c3)ncnc2cc1O[C@H]1CCOC1 [AFATINIB]; assay: as above; settings: exposure time: 5 days; dose range 0.5-1000 nM
Method in brief: as §1

[3] = compound: Cn1cc(C2=Nc3cc(NC(=O)C(N)C4CCCCC4)cc4c3C2=CNNC4=O)cn1; assay: as above; settings: exposure time: 5 days; dose range 0.5-1000 nM
Method in brief: as §1

TIOGUANINE [4] = compound: T3, Nc1nc2[nH]cnc2c(=S)[nH]1 [TIOGUANINE]; assay: as above; settings: exposure time: 5 days; dose range 0.5-1000 nM
Method in brief: as §1

SAPACITABINE = compound: CCCCCCCCCCCCCCCC(=O)Nc1ccn([C@@H]2O[C@H](CO)[C@@H](O)[C@@H]2C#N)c(=O)n1 [SAPACITABINE]; assay: as above; settings: exposure time: 5 days; dose range 0.5-1000 nM
Method in brief: as §1

SNX-5422 = compound: CC1(C)CC(=O)c2c(C(F)(F)F)nn(-c3ccc(C(N)=O)c(N[C@H]4CC[C@H](OC(=O)CN)CC4)c3)c2C1 [SNX-5422]; assay: as above; settings: exposure time: 5 days; dose range 0.5-1000 nM
Method in brief: as §1

CANERTINIB = compound: C=CC(=O)Nc1cc2c(Nc3ccc(F)c(Cl)c3)ncnc2cc1OCCCN1CCOCC1 [CANERTINIB]; assay: as above; settings: exposure time: 5 days; dose range 0.5-1000 nM
Method in brief: as §1

BI-2536 = compound: CC[C@@H]1C(=O)N(C)c2cnc(Nc3ccc(C(=O)NC4CCN(C)CC4)cc3OC)nc2N1C1CCCC1 [BI-2536]; assay: as above; settings: exposure time: 5 days; dose range 0.5-1000 nM
Method in brief: as §1

MDV3100 [5] = compound: T1, MDV3100; assay: surviving fraction relative to DMSO-only wells; higher = less growth inhibition; settings: exposure time: 5 days
Method in brief: (§2)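 For each tumour cell line, log-phase cells were put into 384-well plates at 250–500 cells per well, then after 24 hours exposed continuously for five days to inhibitors at 0.5, 1, 5, 10, 50, 100, 500 and 1000 nM. Viability was assessed by CellTiter-Glo luminescence, with surviving fraction expressed relative to the median of DMSO-only wells. Lines were screened three times and retained only if replicate Pearson r exceeded 0.7 and median Z' exceeded 0.3.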

AFATINIB [6] = compound: T2, AFATINIB; assay: as above; settings: exposure time: 5 days
Method in brief: as §2

[7] = compound: Cn1cc(C2=Nc3cc(NC(=O)C(N)C4CCCCC4)cc4c3C2=CNNC4=O)cn1; assay: as above; settings: exposure time: 5 days
Method in brief: as §2

TIOGUANINE [8] = compound: T3, TIOGUANINE; assay: as above; settings: exposure time: 5 days
Method in brief: as §2

MCF7 BREAST
area under dose-response curve (MDV3100 [1]): 2.89 | area under dose-response curve (AFATINIB [2]): 3.17 | area under dose-response curve [3]: 2.85 | area under dose-response curve (TIOGUANINE [4]): 2.83 | area under dose-response curve (SAPACITABINE): 2.58 | area under dose-response curve (SNX-5422): 2.3 | area under dose-response curve (CANERTINIB): 2.76 | area under dose-response curve (BI-2536): 1.8 | surviving fraction (MDV3100 [5]; 0.5 nM): 0.84 ± 0.029 | surviving fraction (MDV3100 [5]; 1 nM): 0.822 ± 0.031 | surviving fraction (MDV3100 [5]; 5 nM): 0.866 ± 0.058 | surviving fraction (MDV3100 [5]; 10 nM): 0.767 ± 0.038 | surviving fraction (MDV3100 [5]; 50 nM): 0.932 ± 0.03 | surviving fraction (MDV3100 [5]; 100 nM): 0.992 ± 0.025 | surviving fraction (MDV3100 [5]; 500 nM): 0.97 ± 0.014 | surviving fraction (MDV3100 [5]; 1000 nM): 0.897 ± 0.028 | surviving fraction (AFATINIB [6]; 0.5 nM): 0.944 ± 0.025 | surviving fraction (AFATINIB [6]; 1 nM): 0.905 ± 0.028 | surviving fraction (AFATINIB [6]; 5 nM): 0.955 ± 0.017 | surviving fraction (AFATINIB [6]; 10 nM): 0.942 ± 0.032 | surviving fraction (AFATINIB [6]; 50 nM): 1.01 ± 0.035 | surviving fraction (AFATINIB [6]; 100 nM): 1.08 ± 0.053 | surviving fraction (AFATINIB [6]; 500 nM): 0.986 ± 0.073 | surviving fraction (AFATINIB [6]; 1000 nM): 0.953 ± 0.023 | surviving fraction ([7]; 0.5 nM): 0.913 ± 0.043 | surviving fraction ([7]; 1 nM): 0.918 ± 0.052 | surviving fraction ([7]; 5 nM): 0.92 ± 0.023 | surviving fraction ([7]; 10 nM): 0.865 ± 0.022 | surviving fraction ([7]; 50 nM): 0.989 ± 0.022 | surviving fraction ([7]; 100 nM): 0.885 ± 0.029 | surviving fraction ([7]; 500 nM): 0.745 ± 0.02 | surviving fraction ([7]; 1000 nM): 0.575 ± 0.011 | surviving fraction (TIOGUANINE [8]; 0.5 nM): 0.824 ± 0.015 | surviving fraction (TIOGUANINE [8]; 1 nM): 0.804 ± 0.075 | surviving fraction (TIOGUANINE [8]; 5 nM): 0.846 ± 0.032 | surviving fraction (TIOGUANINE [8]; 10 nM): 0.835 ± 0.025
